Results from patent US20210070748A1, “INHIBITORS OF BRUTONS TYROSINE KINASE” (Pharmacyclics LLC, priority 2015, published 2021).

Assays:
BTK-WT = target: T1, BTK-WT (Homo sapiens, UniProt Q06187); test: Btk in vitro inhibitory activity (one of Method A TR-FRET, Method B electrophoretic mobility shift, Method C radiometric filter binding); format: biochemical; conditions: D-compounds panel data; read-out: IC50 BTK-WT
T1 construct: purified from insect cells as a full-length construct containing an N-terminal 6X-His tag; His6 (N); made in house; host or cells: insect cells (baculovirus Sf21 in Method B)

LCK = LCK (Homo sapiens, UniProt P06239); test: Inhibition of a panel of kinases, in vitro HotSpot kinase assay: LCK; format: biochemical; conditions: D-compounds panel data; 1 μM ATP; read-out: IC50 LCK
LCK, sequence (P06239 whole entry): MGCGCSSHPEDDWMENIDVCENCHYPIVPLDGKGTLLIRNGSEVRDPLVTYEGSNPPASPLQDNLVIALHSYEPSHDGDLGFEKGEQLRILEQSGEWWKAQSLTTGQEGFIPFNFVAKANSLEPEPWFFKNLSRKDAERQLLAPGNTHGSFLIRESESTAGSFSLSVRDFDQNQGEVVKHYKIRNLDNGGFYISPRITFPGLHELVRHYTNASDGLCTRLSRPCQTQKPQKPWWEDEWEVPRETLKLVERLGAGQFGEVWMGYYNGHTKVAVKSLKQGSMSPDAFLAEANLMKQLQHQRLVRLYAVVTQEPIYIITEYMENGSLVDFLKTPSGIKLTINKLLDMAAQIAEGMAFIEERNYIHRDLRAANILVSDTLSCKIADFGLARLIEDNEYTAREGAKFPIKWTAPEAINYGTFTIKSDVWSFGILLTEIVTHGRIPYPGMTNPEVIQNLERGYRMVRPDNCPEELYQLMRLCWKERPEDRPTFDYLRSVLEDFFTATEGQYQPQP

T1 sequence (Q06187 whole entry): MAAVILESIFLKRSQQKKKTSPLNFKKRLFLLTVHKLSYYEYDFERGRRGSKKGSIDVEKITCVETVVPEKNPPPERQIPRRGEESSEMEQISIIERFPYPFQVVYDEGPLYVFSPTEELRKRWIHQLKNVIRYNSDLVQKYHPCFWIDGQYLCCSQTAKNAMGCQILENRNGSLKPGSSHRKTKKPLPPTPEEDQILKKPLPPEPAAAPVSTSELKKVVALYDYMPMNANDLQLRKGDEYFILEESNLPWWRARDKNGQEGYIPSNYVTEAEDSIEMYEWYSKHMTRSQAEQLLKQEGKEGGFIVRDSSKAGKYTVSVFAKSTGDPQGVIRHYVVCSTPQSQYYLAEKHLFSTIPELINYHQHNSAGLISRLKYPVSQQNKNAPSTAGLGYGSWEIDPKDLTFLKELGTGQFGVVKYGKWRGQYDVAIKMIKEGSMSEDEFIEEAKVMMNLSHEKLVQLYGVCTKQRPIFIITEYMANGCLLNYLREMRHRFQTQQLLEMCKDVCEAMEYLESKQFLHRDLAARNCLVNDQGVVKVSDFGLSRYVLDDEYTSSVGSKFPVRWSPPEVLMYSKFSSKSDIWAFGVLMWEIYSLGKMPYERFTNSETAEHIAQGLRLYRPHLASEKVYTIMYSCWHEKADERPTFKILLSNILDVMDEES

| Compound | IC50 (BTK-WT) [nM] | IC50 (LCK) [nM] |
| --- | --- | --- |
| C[C@@H]1[C@H](NC(=O)c2ccc3[nH]cnc3c2)CCCN1c1cnc(C(N)=O)c(Nc2cnn(C)c2)n1 [Example D-262, N-[(2R,3R)-1-{5-carbamoyl-6-[(1-methyl-1H-pyrazol-4-yl)amino]pyrazin-2-yl}-2-methylpiperidin-3-yl]-1H-1,3-benzodiazole-5-carboxamide] | ≤ 10 | 10 to 100 |
| C[C@@H]1[C@H](NC(=O)c2cc3n(n2)CCC3)CCCN1c1cnc(C(N)=O)c(Nc2cnn(C)c2)n1 [Example D-263, 3-[(1-methyl-1H-pyrazol-4-yl)amino]-5-[(2R,3R)-2-methyl-3-{4H,5H,6H-pyrrolo[1,2-b]pyrazole-2-amido}piperidin-1-yl]pyrazine-2-carboxamide] | ≤ 10 | 10 to 100 |
| C[C@@H]1[C@H](NC(=O)c2c[nH]c(C3CC3)n2)CCCN1c1cnc(C(N)=O)c(Nc2cnn(C)c2)n1 [Example D-264, 5-[(2R,3R)-3-(2-cyclopropyl-1H-imidazole-4-amido)-2-methylpiperidin-1-yl]-3-[(1-methyl-1H-pyrazol-4-yl)amino]pyrazine-2-carboxamide] | ≤ 10 | 10 to 100 |
| C[C@@H]1[C@H](NC(=O)c2ccc3nccn3c2)CCCN1c1cnc(C(N)=O)c(Nc2cnn(C)c2)n1 [Example D-266, 5-[(2R,3R)-3-(imidazo[1,2-a]pyridine-6-amido)-2-methylpiperidin-1-yl]-3-[(1-methyl-1H-pyrazol-4-yl)amino]pyrazine-2-carboxamide] | ≤ 10 | 10 to 100 |
| C[C@@H]1[C@H](NC(=O)c2ccc3nn(C)cc3c2)CCCN1c1cnc(C(N)=O)c(Nc2cnn(C)c2)n1 [Example D-267, N-[(2R,3R)-1-{5-carbamoyl-6-[(1-methyl-1H-pyrazol-4-yl)amino]pyrazin-2-yl}-2-methylpiperidin-3-yl]-2-methyl-2H-indazole-5-carboxamide] | ≤ 10 | 10 to 100 |
| C[C@@H]1[C@H](NC(=O)c2ccc(C(N)=O)cc2)CCCN1c1cnc(C(N)=O)c(Nc2cnn(C)c2)n1 [Example D-268, 1-N-[(2R,3R)-1-{5-carbamoyl-6-[(1-methyl-1H-pyrazol-4-yl)amino]pyrazin-2-yl}-2-methylpiperidin-3-yl]benzene-1,4-dicarboxamide] | ≤ 10 | 10 to 100 |
| COCCN(C)Cc1cc(Nc2nc(N3CCC[C@@H](NC(=O)c4ccc(C5CC5)cc4)[C@H]3C)cnc2C(N)=O)sn1 [Example D-269, 5-[(2R,3R)-3-(4-cyclopropylbenzamido)-2-methylpiperidin-1-yl]-3-[(3-{[(2-methoxyethyl)(methyl)amino]methyl}-1,2-thiazol-5-yl)amino]pyrazine-2-carboxamide] | ≤ 10 | 100 to 1000 |
| COCCn1cc(Nc2nc(N3CCC[C@@H](NC(=O)c4ccc(C5CC5)cc4)[C@H]3C)cnc2C(N)=O)cn1 [Example D-270, 5-[(2R,3R)-3-(4-cyclopropylbenzamido)-2-methylpiperidin-1-yl]-3-{[1-(2-methoxyethyl)-1H-pyrazol-4-yl]amino}pyrazine-2-carboxamide] | ≤ 10 | 100 to 1000 |
| Cc1c(Nc2nc(N3CCC[C@@H](NC(=O)c4ccc(C5CC5)cc4)[C@H]3C)cnc2C(N)=O)cnn1C [Example D-271, 5-[(2R,3R)-3-(4-cyclopropylbenzamido)-2-methylpiperidin-1-yl]-3-[(1,5-dimethyl-1H-pyrazol-4-yl)amino]pyrazine-2-carboxamide] | 10 to 100 | 1000 to 10000 |
| Cc1nn(C)cc1Nc1nc(N2CCC[C@@H](NC(=O)c3ccc(C4CC4)cc3)[C@H]2C)cnc1C(N)=O [Example D-272, 5-[(2R,3R)-3-(4-cyclopropylbenzamido)-2-methylpiperidin-1-yl]-3-[(1,3-dimethyl-1H-pyrazol-4-yl)amino]pyrazine-2-carboxamide] | 10 to 100 | > 10000 |
| CCn1cc(Nc2nc(N3CCC[C@@H](NC(=O)c4ccc(C5CC5)cc4)[C@H]3C)cnc2C(N)=O)cn1 [Example D-273, 5-[(2R,3R)-3-(4-cyclopropylbenzamido)-2-methylpiperidin-1-yl]-3-[(1-ethyl-1H-pyrazol-4-yl)amino]pyrazine-2-carboxamide] | ≤ 10 | 100 to 1000 |

Second part, the molecule after the results:

| IC50 (BTK-WT) [nM] | IC50 (LCK) [nM] | Compound |
| --- | --- | --- |
| ≤ 10 | 100 to 1000 | C[C@@H]1[C@H](NC(=O)c2cc(C(C)(C)C)n[nH]2)CCCN1c1cnc(C(N)=O)c(Nc2cnn(C)c2)n1 [Example D-244, 5-[(2R,3R)-3-(3-tert-butyl-1H-pyrazole-5-amido)-2-methylpiperidin-1-yl]-3-[(1-methyl-1H-pyrazol-4-yl)amino]pyrazine-2-carboxamide] |
| ≤ 10 | 100 to 1000 | C[C@@H]1[C@H](NC(=O)c2ccc(C3CC3)c(O)c2)CCCN1c1cnc(C(N)=O)c(Nc2cnn(C)c2)n1 [Example D-245, 5-[(2R,3R)-3-(4-cyclopropyl-3-hydroxybenzamido)-2-methylpiperidin-1-yl]-3-[(1-methyl-1H-pyrazol-4-yl)amino]pyrazine-2-carboxamide] |
| ≤ 10 | 10 to 100 | Cc1cc2cc(C(=O)N[C@@H]3CCCN(c4cnc(C(N)=O)c(Nc5cnn(C)c5)n4)[C@@H]3C)ccc2o1 [Example D-246, 3-[(1-methyl-1H-pyrazol-4-yl)amino]-5-[(2R,3R)-2-methyl-3-(2-methyl-1-benzofuran-5-amido)piperidin-1-yl]pyrazine-2-carboxamide] |
| ≤ 10 | 100 to 1000 | C[C@@H]1[C@H](NC(=O)c2cc(C(C)(C)C)on2)CCCN1c1cnc(C(N)=O)c(Nc2cnn(C)c2)n1 [Example D-247, 5-[(2R,3R)-3-(5-tert-butyl-1,2-oxazole-3-amido)-2-methylpiperidin-1-yl]-3-[(1-methyl-1H-pyrazol-4-yl)amino]pyrazine-2-carboxamide] |
| ≤ 10 | 10 to 100 | COCCN(C)c1ccc(C(=O)N[C@@H]2CCCN(c3cnc(C(N)=O)c(Nc4cnn(C)c4)n3)[C@@H]2C)cc1 [Example D-248, 5-[(2R,3R)-3-{4-[(2-methoxyethyl)(methyl)amino]benzamido}-2-methylpiperidin-1-yl]-3-[(1-methyl-1H-pyrazol-4-yl)amino]pyrazine-2-carboxamide] |
| ≤ 10 | 10 to 100 | C[C@@H]1[C@H](NC(=O)c2ccc(C(C)(C)F)cc2)CCCN1c1cnc(C(N)=O)c(Nc2cnn(C)c2)n1 [Example D-251, 5-[(2R,3R)-3-[4-(2-fluoropropan-2-yl)benzamido]-2-methylpiperidin-1-yl]-3-[(1-methyl-1H-pyrazol-4-yl)amino]pyrazine-2-carboxamide] |
| ≤ 10 | 10 to 100 | C[C@@H]1[C@H](NC(=O)c2cc(C3CC3)n[nH]2)CCCN1c1cnc(C(N)=O)c(Nc2cnn(C)c2)n1 [Example D-252, 5-[(2R,3R)-3-(3-cyclopropyl-1H-pyrazole-5-amido)-2-methylpiperidin-1-yl]-3-[(1-methyl-1H-pyrazol-4-yl)amino]pyrazine-2-carboxamide] |
| ≤ 10 | 100 to 1000 | C[C@@H]1[C@H](NC(=O)c2cc(C3CC3)n(C)n2)CCCN1c1cnc(C(N)=O)c(Nc2cnn(C)c2)n1 [Example D-253, 5-[(2R,3R)-3-(5-cyclopropyl-1-methyl-1H-pyrazole-3-amido)-2-methylpiperidin-1-yl]-3-[(1-methyl-1H-pyrazol-4-yl)amino]pyrazine-2-carboxamide] |
| ≤ 10 | 100 to 1000 | C[C@@H]1[C@H](NC(=O)c2ccc3c(cnn3C)c2)CCCN1c1cnc(C(N)=O)c(Nc2cnn(C)c2)n1 [Example D-254, N-[(2R,3R)-1-{5-carbamoyl-6-[(1-methyl-1H-pyrazol-4-yl)amino]pyrazin-2-yl}-2-methylpiperidin-3-yl]-1-methyl-1H-indazole-5-carboxamide] |
| ≤ 10 | 100 to 1000 | CC(C)n1nnc2cc(C(=O)N[C@@H]3CCCN(c4cnc(C(N)=O)c(Nc5cnn(C)c5)n4)[C@@H]3C)ccc21 [Example D-255, N-[(2R,3R)-1-{5-carbamoyl-6-[(1-methyl-i H-pyrazol-4-yl)amino]pyrazin-2-yl}-2-methylpiperidin-3-yl]-1-(propan-2-yl)-1H-1,2,3-benzotriazole-5-carboxamide] |
| ≤ 10 | 10 to 100 | C[C@@H]1[C@H](NC(=O)c2coc(C3CC3)n2)CCCN1c1cnc(C(N)=O)c(Nc2cnn(C)c2)n1 [Example D-257, 5-[(2R,3R)-3-(2-cyclopropyl-1,3-oxazole-4-amido)-2-methylpiperidin-1-yl]-3-[(1-methyl-1H-pyrazol-4-yl)amino]pyrazine-2-carboxamide] |
| ≤ 10 | 100 to 1000 | C[C@@H]1[C@H](NC(=O)c2ccc3c(c2)CCC(C)(C)O3)CCCN1c1cnc(C(N)=O)c(Nc2cnn(C)c2)n1 [Example D-258, 5-[(2R,3R)-3-(2,2-dimethyl-3,4-dihydro-2H-1-benzopyran-6-amido)-2-methylpiperidin-1-yl]-3-[(1-methyl-1H-pyrazol-4-yl)amino]pyrazine-2-carboxamide] |
| ≤ 10 | 10 to 100 | C[C@@H]1[C@H](NC(=O)c2ccc3cnn(C)c3c2)CCCN1c1cnc(C(N)=O)c(Nc2cnn(C)c2)n1 [Example D-259, N-[(2R,3R)-1-{5-carbamoyl-6-[(1-methyl-1H-pyrazol-4-yl)amino]pyrazin-2-yl}-2-methylpiperidin-3-yl]-1-methyl-1H-indazole-6-carboxamide] |
| ≤ 10 | 10 to 100 | C[C@@H]1[C@H](NC(=O)c2ccc(C3(CO)CC3)cc2)CCCN1c1cnc(C(N)=O)c(Nc2cnn(C)c2)n1 [Example D-260, 5-[(2R,3R)-3-{4-[1-(hydroxymethyl)cyclopropyl]benzamido}-2-methylpiperidin-1-yl]-3-[(1-methyl-1H-pyrazol-4-yl)amino]pyrazine-2-carboxamide] |
| ≤ 10 | 10 to 100 | Cc1nc2cc(C(=O)N[C@@H]3CCCN(c4cnc(C(N)=O)c(Nc5cnn(C)c5)n4)[C@@H]3C)ccc2[nH]1 [Example D-261, N-[(2R,3R)-1-{5-carbamoyl-6-[(1-methyl-1H-pyrazol-4-yl)amino]pyrazin-2-yl}-2-methylpiperidin-3-yl]-2-methyl-1H-1,3-benzodiazole-5-carboxamide] |
